Values joined by “and” are separate entries in the source; they are usually repeats but may differ in a detail not shown here. Equal entries are not always repeated.
Key:
SARS-CoV-2 M^pro E166V = conditions: cited from earlier work
SARS-CoV-2 M^pro T304I = conditions: cited from earlier work
SARS-CoV-2 M^pro T21I = conditions: cited from earlier work
[1] = test system: SARS-CoV-2 M^pro T21I+S144A+T304I mutant virus; type: cell-based
[2] = test system: SARS-CoV-2 M^pro T304I mutant virus; type: cell-based
SARS-CoV-2 M^pro L50F = conditions: cited from earlier work

Compound: CC(C)(C)[C@H](NC(=O)C(F)(F)F)C(=O)N1C[C@H]2[C@@H]([C@H]1C(=O)N[C@H](C#N)C[C@@H]1CCNC1=O)C2(C)C [Nirmatrelvir]
- fold resistance to nirmatrelvir in vitro (SARS-CoV-2 M^pro E166V): up to 288 fold
- fold resistance to nirmatrelvir (SARS-CoV-2 M^pro T304I): 5.5 fold
- fold resistance to nirmatrelvir (SARS-CoV-2 M^pro T21I): 4.6 fold
- Fold over WA-1 [1]: > 20 fold and 27.8 fold
- Fold over WA-1 [2]: 3.4 fold
- fold resistance to nirmatrelvir (SARS-CoV-2 M^pro L50F): 4.2 fold
